Values of other authors as cited in patent US20260324642A1, “COMPOSITION, PEST CONTROL PREPARATION, AND PEST CONTROL METHOD” (priority 2023, published 2026).

Conditions: known activity, background art

Compound | insecticidal activity
COc1ccc(C(=O)O[C@H]2CC[C@@]3(C)[C@@H]4CC[C@H]5[C@]6(O)C[C@H](O)[C@@]7(O)[C@@H](CN8C[C@@H](C)CC[C@H]8[C@@]7(C)O)[C@]6(O)C[C@@]53O[C@]24O)cc1OC [Veratridine] | known to have insecticidal activity
C/C=C(/C)C(=O)O[C@H]1CC[C@@]2(C)[C@@H]3CC[C@H]4[C@]5(O)C[C@H](O)[C@@]6(O)[C@@H](CN7C[C@@H](C)CC[C@H]7[C@@]6(C)O)[C@]5(O)C[C@@]42O[C@]13O [Cevadine] | known to have insecticidal activity
